These results are taken from patent US9101632B2, “Kinase inhibitors, prodrug forms thereof and their use in therapy” (AUCKLAND UNISERVICES LIMITED, priority 2009, dated 2015).

pIC50: −log10 of the molar value. Counter-ions that a name gives are not always drawn. Like-named read-outs stand apart in the source and are kept apart here.

Data set [1] in a line: Fragmentation rate constant of 1-electron reduced prodrugs by pulse radiolysis. Particulars: formation of benzyl-type radicals absorbing in the 360-390 nm region. In kind it is physicochemical.
Source text: The rate constants for fragmentation, kfrag, of the 1-electron reduced prodrugs can be measured using pulse radiolysis to observe the time-resolved formation of the absorption spectrum of the benzyl-type radical produced upon fragmentation of the radical anion.
The subject of data set [2] is A431 cells. In words: Inhibition of cellular proliferation (sulforhodamine B staining).
For data set [3] the following is noted: pulse radiolysis, determined against methylviologen.
The subject of data set [4] is SKOV3 cells. As to the kind of experiment: Inhibition of cellular proliferation (sulforhodamine B staining).
Data set [5] concerns H1975 cells. Described as above.
Data set [6] has as its system H1975 tumours. Particulars: for Drug related deaths / Weight Loss Nadir (%): H1975 xenograft, q3dx4, intraperitoneal; for Drug related deaths: lactate buffer pH 4; for Weight Loss Nadir (%): mean nadir relative to day 0 weight.
For data set [7], the target named is erbB1 (EGFR) (Homo sapiens, UniProt P00533). As to the kind of experiment: Inhibition of erbB1 autophosphorylation in EGF-stimulated intact A431 cells (Western immunoblotting). The class given is cell-based. Particulars: 1 hour treatment, phospho-EGFR (Tyr 1068), β-actin corrected. How it is done: (§1) A431 cells were seeded into 6 well plates (with αMEM+5% FCS). The following day, plates were washed once with serum-free medium and grown for 18 hours in serum-free medium (αMEM) before being exposed to a range of inhibitor or prodrug concentrations for 1 hour and then stimulated for 15 minutes with 100 ng/ml epidermal growth factor (EGF receptor ligand). Next cells were washed with ice cold PBS and lysed in modified RIPA buffer on ice (30 min). Lysates were vortexed and clarify by spinning before protein concentrations of samples was determined by BCA assay. […] All antibodies were diluted in 2% BSA TBS-Tween 0.1%. To detect phospho-EGFR (Tyr 1068) the monoclonal antibody (1:500; Cell Signalling #2234) was incubated overnight at 4° C. and binding was detected with goat-anti-Rabbit-IgG-HRP conjugated secondary antibody (1:5000; Santa Cruz #SC2054; 3 h RT). To detect downstream phospho-p44/42 MAPK(Erk 1/2) (Thr202/Tyr 204) the monoclonal antibody (Cell Signalling #4370) was used at a 1:500 dilution. The blot was then treated with Goat anti-rabbit IgG-HRP conjugated secondary antibody (Santa Cruz Biotechnology, Inc. sc-2054) for three hours at a ratio of 1:5000. To normalise for any inaccuracy in gel loading, each blot was probed with anti-β-actin antibody (Abacus ALS #MAB-1501R, 1:2000 dilution). The following day, the blot was treated with Goat anti-mouse IgG-HRP conjugated secondary antibody (Santa Cruz Biotechnology, Inc. sc-2055) for one hour at a 1:5000 ratio. Protein bands were visualized using Amersham ECL Plus Western Blotting Detection Reagent (GE Healthcare RPN2132). Densitometry was determined using Image J software. Values normalized to β-actin were plotted on SigmaPlot 11.0.
Background: Immunoblotting shows a protein as a band on a membrane.

The subject of data set [8] is p44/42 MAPK (Erk1/2). As to the kind of experiment: Inhibition of p44/42 MAPK (Erk1/2) phosphorylation in EGF-stimulated intact A431 cells (Western immunoblotting). In kind it is cell-based, human. Particulars: Homo sapiens, A-431, 1 hour treatment, read-out: IC50 p44/42 MAPK(Erk 1/2) phosphorylation (Thr202/Tyr 204). How it is done:
as §1

[9] abbreviates: read-out: Cellular Growth Inhibition IC50 A431 Anoxic, initial 4 hours of the 24 hour exposure under anoxic conditions.
[10] abbreviates: read-out: Cellular Growth Inhibition IC50 A431 Oxic, 24 hour exposure entirely under oxic conditions, washed, further 4 days.
The mark [11] stands for this setting: read-out: Cellular Growth Inhibition IC50 SKOV3 Anoxic, initial 4 hours of the 24 hour exposure under anoxic conditions.
Setting [12] is: read-out: Cellular Growth Inhibition IC50 SKOV3 Oxic, 24 hour exposure entirely under oxic conditions, washed, further 4 days.
Setting [13] is: read-out: Cellular Growth Inhibition IC50 H1975 Anoxic, initial 4 hours of the 24 hour exposure under anoxic conditions.
[14] abbreviates: read-out: Cellular Growth Inhibition IC50 H1975 Oxic, 24 hour exposure entirely under oxic conditions, washed, further 4 days.

As usually defined, the melting point is the temperature of the solid-liquid transition.

Sequence of erbB1 (EGFR) (P00533 25-1210): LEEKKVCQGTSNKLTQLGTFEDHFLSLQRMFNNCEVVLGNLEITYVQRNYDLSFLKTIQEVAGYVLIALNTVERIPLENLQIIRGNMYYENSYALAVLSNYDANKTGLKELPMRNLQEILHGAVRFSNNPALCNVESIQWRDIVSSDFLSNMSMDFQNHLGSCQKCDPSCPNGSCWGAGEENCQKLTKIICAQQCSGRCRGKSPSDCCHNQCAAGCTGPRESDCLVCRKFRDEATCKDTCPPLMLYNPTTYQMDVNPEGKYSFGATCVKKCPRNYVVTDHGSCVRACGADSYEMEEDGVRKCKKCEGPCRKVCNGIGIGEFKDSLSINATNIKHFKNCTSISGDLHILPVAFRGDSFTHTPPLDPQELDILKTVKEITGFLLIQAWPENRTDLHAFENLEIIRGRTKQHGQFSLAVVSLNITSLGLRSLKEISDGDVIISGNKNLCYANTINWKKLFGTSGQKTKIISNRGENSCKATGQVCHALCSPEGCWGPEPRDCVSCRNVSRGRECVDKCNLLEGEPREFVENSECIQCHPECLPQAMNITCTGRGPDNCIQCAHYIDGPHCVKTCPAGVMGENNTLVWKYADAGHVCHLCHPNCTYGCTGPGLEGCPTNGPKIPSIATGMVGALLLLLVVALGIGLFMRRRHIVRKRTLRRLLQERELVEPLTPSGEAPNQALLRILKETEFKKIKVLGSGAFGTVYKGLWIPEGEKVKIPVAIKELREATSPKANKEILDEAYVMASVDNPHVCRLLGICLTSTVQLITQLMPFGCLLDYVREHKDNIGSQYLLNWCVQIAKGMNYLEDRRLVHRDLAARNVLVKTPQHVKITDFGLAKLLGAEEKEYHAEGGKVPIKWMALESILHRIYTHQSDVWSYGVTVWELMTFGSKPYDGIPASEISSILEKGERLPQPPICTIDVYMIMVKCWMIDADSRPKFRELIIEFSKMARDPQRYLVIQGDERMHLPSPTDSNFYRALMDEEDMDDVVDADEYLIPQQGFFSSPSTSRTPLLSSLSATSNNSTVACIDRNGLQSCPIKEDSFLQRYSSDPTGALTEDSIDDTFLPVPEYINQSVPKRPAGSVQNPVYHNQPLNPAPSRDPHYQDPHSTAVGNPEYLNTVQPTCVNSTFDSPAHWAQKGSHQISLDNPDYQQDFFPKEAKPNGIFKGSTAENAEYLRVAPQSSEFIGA

As to `Cn1cnc([N+](=O)[O-])c1C[N+](C)(C)C/C=C/C(=O)Nc1cc2c(Nc3ccc4c(cnn4Cc4cccc(F)c4)c3)ncnc2cn1` [Compound 13, (2E)-4-[(4-{[1-(3-fluorobenzyl)-1H-indazol-5-yl]amino}pyrido[3,4-d]pyrimidin-6-yl)amino]N,N-dimethyl-N-[(1-methyl-4-nitro-1H-imidazol-5-yl)methyl]-4-oxo-2-buten-1-ammonium bromide], in [1], the “kfrag./s^−1 rate constant for fragmentation” value (shortened to “kfrag./s^−1 rate constant”) is 60 ± 10 s⁻¹. Further, the pIC50 in [2] (setting [9]) was 6.62; in [2] (setting [10]), 5.21; in data set [4] (setting [11]), 5.80; in [4] (setting [12]), 3.50; in [5] (setting [13]), 5.48; in [5] (setting [14]), 4.04. In addition, the “E(1)/V 1-electron reduction potential” value in data set [3] is given as −0.417 V. This compound also returned a Drug related deaths in [6] of 0. In addition, in data set [6], the “Weight Loss Nadir (%)” value was −4.1 ± 2.5%.
On to `Cn1cnc([N+](=O)[O-])c1C[N+](C)(C)C/C=C/C(=O)Nc1cc2c(Nc3ccc(OCc4ccccn4)c(Cl)c3)ncnc2cn1` [Compound 15, (2E)-4-({4-[3-chloro-4-(2-pyridinylmethoxy)anilino]pyrido[3,4-d]pyrimidin-6-yl}amino)-N,N-dimethyl-N-[(1-methyl-4-nitro-1H-imidazol-5-yl)methyl]-4-oxo-2-buten-1-ammonium bromide], for which the “kfrag./s^−1 rate constant” value in data set [1] came to 60 ± 10 s⁻¹. Moreover, the pIC50 in [2] (setting [9]) is 6.52; in data set [2] (setting [10]), 5.00; in [4] (setting [11]) it was 6.22; in [4] (setting [12]) it was 3.80; in data set [7], 5.28; in [8], 5.05. Moreover, the results for the pIC50 in data set [5] (setting [13]) and in [5] (setting [14]) were 6.37 and 4.59, respectively. For the same compound, the “E(1)/V 1-electron reduction potential” value in data set [3] was −0.423 V. Also, in [6] (H1975 tumours, q3dx4), the “growth delay of prodrug compared to its cognate kinase inhibitor, result in words” value is listed as “extended period of growth delay”. Moreover, the Drug related deaths in data set [6] was 0. Further, the “Weight Loss Nadir (%)” value in [6] is given as −9.4 ± 3.3%.
Consider `Cc1nc([N+](=O)[O-])c(C[N+](C)(C)C/C=C/C(=O)Nc2cc3c(Nc4ccc5c(cnn5Cc5cccc(F)c5)c4)ncnc3cn2)n1C` (as salt: bromide) [Compound 14, (2E)-N-[(1,2-dimethyl-4-nitro-1H-imidazol-5-yl)methyl]-4-[(4-{[1-(3-fluorobenzyl)-1H-indazol-5-yl]amino}pyrido[3,4-d]pyrimidin-6-yl)amino]-N,N-dimethyl-4-oxo-2-buten-1-ammonium bromide], for which the melting point is 188 to 192 °C (dec.).
`Cn1cnc([N+](=O)[O-])c1C[N+](C)(C)C/C=C/C(=O)Nc1cc2c(Nc3ccc(Cl)c(Cl)c3)ncnc2cn1` [Compound 16, (2E)-4-{[4-(3,4-dichloroanilino)pyrido[3,4-d]pyrimidin-6-yl]amino}-N,N-dimethyl-N-[(1-methyl-4-nitro-1H-imidazol-5-yl)methyl]-4-oxo-2-buten-1-ammonium bromide]: in data set [1], the “kfrag./s^−1 rate constant” value was 60 ± 10 s⁻¹. The pIC50 in data set [2] (setting [9]) is 7.82; in data set [2] (setting [10]), 6.48; in [4] (setting [11]), 6.28; in data set [4] (setting [12]), 4.40; in data set [5] (setting [13]), 6.40; in data set [5] (setting [14]) it was 4.49. Further, the “E(1)/V 1-electron reduction potential” value in [3] was −0.418 V. Further, the Drug related deaths in data set [6] is recorded as 0. The “Weight Loss Nadir (%)” value in [6] is on record as −10.1 ± 0.7%.
